The values below come from patent US10568949B2, “Method of eliciting an anti-tumor immune response with controlled delivery of TLR agonists in porous polymerlc devices” (President and Fellows of Harvard College, priority 2008, dated 2020).

“And” between values parts separate entries of the source, which are not always exact repeats. Equal entries are not always repeated. A value given as a limit tells only on which side of the number the result lay.

In one data set the test system is host DCs. Put plainly: In vivo DC recruitment and activation in PLG matrices (FACS). Also on record: species or system C57BL/6J mice. As to conditions: for proportion of CD8+ cDCs in DC population at vaccine site / proportion of pDCs in DC population at vaccine site / total DC numbers in situ: antigen-loaded matrices, CpG and GM-CSF together versus GM-CSF alone. As for the experimental part:
Blank scaffolds and scaffolds containing GM-CSF with or without 10 μg PEI-ODN control (5′-tcc atg agc ttc ctg agc tt-3′) (SEQ ID NO: 6) or 10 μg PEI-CpG-ODN condensate loaded scaffolds were implanted into subcutaneous pockets on the back of 7-9 week old male C57BL/6J mice. For histological examination scaffolds were excised and fixed in Z-fix solution, embedded in paraffin, and stained with hematoxylin and eosin. To analyze DC recruitment, scaffolds were excised and the ingrown tissue was digested into single cell suspensions using a collagenase solution (Worthingtion, 250 U/ml) that was agitated at 37° C. for 45 minutes. The cell suspensions were then poured through a 40 μm cell strainer to isolate cells from scaffold particles and the cells were pelleted and washed with cold PBS and counted using a Z2 coulter counter (Beckman Coulter). The resultant cell populations were then stained with primary antibodies (BD Pharmingen, San Diego, Calif.) conjugated to fluorescent markers to allow for analysis by flow cytometry. APC-conjugated CD11c (dendritic cell marker) and PE-conjugated CD86 (B7, costimulatory molecule) stains were conducted for DC recruitment analysis, and APC-conjugated CD11c, FITC-conjugated CCR7, and PE-conjugated MHCII stains were conducted for DC programming analysis. Cells were gated according to positive FITC, APC and PE using isotype controls, and the percentage of cells staining positive for each surface antigen was recorded. To track in vivo DC emigration from scaffolds toward the inguinal lymph nodes, 250 μg of lyophilized fluoroscein isothiocyanate (FITC) (Molecular Probes, Carlsbad, Calif.) was incorporated into scaffolds by mixing with PLG microspheres before scaffold processing, and FITC was also applied by incubating scaffolds with 330 ul of 3% FITC solution for 30 min. […] Cell suspensions from LNs were prepared by digestion in collagenase for 30 min and pressing of the tissue through 70 μm cell strainers, and examined for CD11c(+)FITC(+) cell numbers by flow cytometry.
Blank PLG matrices and matrices containing 3000 ng of GM-CSF alone or in combination with either 1, 10, 50, or 100 μg of CpG-ODN (studies were also performed with tumor lysates copresented with either 3000 ng of GM-CSF or 100 μg of CpG-ODN alone or in combination) were implanted into subcutaneous pockets on the back of 7- to 9-week-old male C57BL/6J mice. For histological examination, scaffolds were excised and fixed in Z-fix solution (Anatech), embedded in paraffin, and stained with hematoxylin and eosin (H&E). To analyze DC recruitment, scaffolds were excised at various time points and digested the ingrown tissue into single-cell suspensions with a collagenase solution (250 U/ml; Worthington) that was agitated at 37° C. for 45 min. The cell suspensions were then poured through a 40-μm cell strainer to isolate cells from scaffold particles, and the cells were pelleted and washed with cold PBS and counted with a Z2 coulter counter (Beckman Coulter). To assess DC infiltration and activation, subsets of the total cell population isolated from PLG matrices were stained with primary antibodies (BD Pharmingen) conjugated to fluorescent markers to allow for analysis by flow cytometry. Allophycocyanin (APC)-conjugated CD11c (DC marker) and phycoerythrin (PE)-conjugated CD86 (B7, costimulatory molecule) stains were conducted for DC recruitment analysis, and APC-conjugated CD11c, fluorescein isothiocyanate (FITC)-conjugated CCR7, and PE-conjugated MHCII stains were conducted for DC programming analysis. To further delineate the presence of specific DC subsets, cells were stained with APC-conjugated CD11c and PE-conjugated PDCA-1 (pDC marker), APC-conjugated CD11c and PE-conjugated CD8 (CD8 DCs), or APC-conjugated CD11c and FITC-conjugated CD11b (CD11b DCs).

Another data set deals with B16-F10 melanoma cells. In words: Example 7: therapeutic vaccination of established B16-F10 melanoma.
Another data set relates to TRP2-specific CTLs. In words: TRP2-specific CTLs in spleens (pentamer staining). The conditions noted are these: GM-CSF, antigen. The format is in vivo, C57BL/6J mice. The source says: […] These cells were initially stained with APC-H-2Kb-TRP2 pentamers (Proimmune) and subsequently stained with PE-conjugated monoclonal antibody to CD8 (BD Pharmingen) before being analyzed by flow cytometry.

Another data set concerns IL-12p70. In words: Example 7: cytokine concentrations at implant site. The conditions noted are these: with GM-CSF. The format is in vivo, C57BL/6J mice.
The test system of data set [1] is TRP-2-specific cytotoxic T lymphocytes. Put plainly: Example 8: TRP-2-specific cytotoxic T lymphocytes in spleens (Day 10). Also on record: species or system C57BL/6J mice. As to conditions: mouse, in vivo.
Method: To determine the generation of TRP-2-specific cytotoxic T lymphocytes, single cell suspensions were prepared at Day 10 from the spleens of mice immunized with PLG vaccines. These cells were initially stained with PE-H-2Kb/TRP2 pentamers (Sigma Aldrich), and subsequently stained with FITC-anti-CD8 and PE-CY7 CD3 mAb (mAb (BD Pharmingen, San Diego) before being analyzed using flow cytometry.
The next data set deals with JAWSII DCs. In words: In vitro DC migration toward CCL19 (transwell). The format is cell-based. The procedure: Migration assays were performed with 6.5 mm transwell dishes (Costar, Cambridge, Mass.) with a pore size of 5 μm. To test whether CpG-ODN stimulation may affect DC chemotaxis towards CCL19 (Peprotech, Rocky Hill, N.J.) in the presence of GM-CSF, 5×10^5 DCs stimulated with either 5 μg/ml of CpG-ODN or PEI-CPG-ODN (Charge Ratio of 7), and 0, 50 and 500 ng/ml GM-CSF were placed in the top wells and 300 ng/ml of CCL19 was placed in the bottom well. After 12 hours the cells that migrated into the bottom wells of the chamber were harvested and counted using a coulter counter. Dispersement of DCs from PEI-CpG-ODN loaded PLG matrices toward CCL19 was assessed by incorporating 5, 50 and 500 μg of condensates into PLG scaffolds (13 mm diameter, 2 mm thick that were quartered) seeded with 1×10^6 DCs and fixed onto transwells using bovine collagen (BD Biosciences, San Jose, Calif.). To test the effects of CpG stimulation in the presence of GM-CSF, 500 ng/ml of GM-CSF was supplemented into the media of the top wells with scaffolds containing 25 μg of PEI-CpG-ODN. At various timepoints, the cells that migrated into the bottom wells of the chamber were harvested and counted using a coulter counter.

Data set [2] in a line: In vivo GM-CSF concentration in tissue around PLG implant. As to conditions: for GM-CSF concentration in surrounding tissue: peak. More on the design: species or system C57BL/6J mice.
The mark [3] stands for this setting: optimal CpG-ODN doses (10-25 μg) opposed by GM-CSF 3 μg, in vivo.
Setting [4] is: tumor lysate with GM-CSF and CpG, day 10.

Method for B16-F10 melanoma cells: To assess PLG vaccine efficacy in the therapeutic setting, C57/BL6J mice were challenged with a subcutaneous injection of 5×10^5 B16-F10 melanoma cells (ATCC, Manassas, N.J.) in the back of the neck. At day 9 after tumor challenge PLG vaccines loaded with 3000 ng GM-CSF in combination with 100 μg of CpG-ODN, MPLA or P(I:C), and tumor lysates were implanted subcutaneously into the lower left flank of C57BL/6J mice. A subset of mice were vaccinated again 10 days after the initial vaccination (Days 19 and 23).
Mice challenged with 5×10^5B16-F10 melanoma cells were subsequently vaccinated at days 9 and 19, after tumors were established.
Method for IL-12p70: To determine in vivo IL-12p70 concentration at the matrix implant site, adjacent tissue was excised and digested with tissue protein extraction reagent. After centrifugation, the concentrations of IL-12, in the supernatant were then analyzed with ELISA (R&D systems), according to the manufacturer's instructions.

As for CpG-ODN 1826, the “numbers of resident pDCs” value with host DCs (3000 ng GM-CSF, 10 μg CpG-ODN) is 520,000 cells. In addition, the “numbers of resident pDCs” value with host DCs (3000 ng GM-CSF, 100 μg CpG-ODN) is 1,200,000 cells and 1,100,000 cells. In the data set with host DCs (CpG-ODN with GM-CSF), the “increase in CCR7 expressing DCs in matrices over GM-CSF or CpG-ODN delivery alone” value is approximately 4.5 fold and the “increase in MHCII expressing DCs in matrices over GM-CSF or CpG-ODN delivery alone” value is “approximately 2.5 fold”. In addition, in the data set on host DCs (antigen presenting matrices with GM-CSF and CpG-ODN), the “total cells at the matrix site that were CD8(+)” value turned out to be 10.3%. Further, in the data set with host DCs (day 10, listed as CpG), the “proportion of CD8+ cDCs in DC population at vaccine site” value was ~14% and ~9.4%; the “proportion of pDCs in DC population at vaccine site” value was ~31% and ~38%. For the same molecule, the “total DC numbers in situ” value in the data set with host DCs (listed as CpG) was 3.0±0.6 million DCs and 3.05±0.55 million DCs. The “optimal CpG-ODN dose for DC activation in vivo” value in the data set with host DCs (in presence of high GM-CSF levels) lay in the range of 10 to 25 µg. Besides, the “numbers of activated DCs generated” value in the data set with host DCs (infection-mimicking system, CpG-ODN ~10-25 μg with GM-CSF) is recorded as > 10^6. In the data set with host DCs (setting [3]), the DC activation is listed as 44% and the “number of activated DCs” value is 1.5×10^6 cells. For the same molecule, in the data set with host DCs (setting [4]), the “increase (factor / fold) in pDCs over blank controls” value is 10 and the “increase (factor / fold) in pDCs over matrices without lysate/antigen” value is reported as 2. In addition, the “increase (factor / fold) in CD8+ DCs over blank matrices” value with host DCs (tumor lysates with CpG-ODN and GM-CSF) was found to be 9. Moreover, the “number of CD8+ DCs (CD11c(+)CD8(+) cDCs) in matrices” value with host DCs (tumor lysates with CpG-ODN, no GM-CSF) is 200,000. Further, in the data set with B16-F10 melanoma cells (mouse, in vivo), the “complete tumor regression, fraction of vaccinated animals” value is reported as “over a third” and the “size of tumors that completely regressed / were eradicated” value was found to be 35 mm^2. Besides, in the data set with B16-F10 melanoma cells (vaccinated at days 9 and 19), the “long term survival of mice” value turned out to be 33%. The “TRP2-specific CD8 T cells” value with TRP2-specific CTLs (CpG dose 50 μg) was found to be 0.3 % splenocytes. Also, the “effect on IFN-α concentration at vaccine site” value in the data set on IL-12p70 was “elevated levels”.

B1: granulocyte macrophage colony stimulating factor (protein, UniProt P01587 18-141, looked up)
Granulocyte-macrophage …: APTRSPITVTRPWKHVEAIKEALNLLDDMPVTLNEEVEVVSNEFSFKKLTCVQTRLKIFEQGLRGNFTKLKGALNMTASYYQTYCPPTPETDCETQVTTYADFIDSLKTFLTDIPFECKKPGQK
notes: cytokine encapsulated in and released from PLG matrices to recruit DCs
For the molecule B1, the “day at which activation state of DCs peaked” value in the data set on host DCs (3000 ng GM-CSF) came out at 10 days; with host DCs (7000 ng GM-CSF) it was 28 days. The “numbers of resident pDCs” value in the data set on host DCs (3000 ng GM-CSF, 0 μg CpG-ODN) is reported as 190,000 cells. For the same molecule, the “increase (factor / fold) in CD11c DCs recruited vs blank PLG matrices” value in the data set on host DCs (3000 ng GM-CSF, day 14) is approximately 8. Also, in the data set with host DCs (GM-CSF delivery), the “matrix-resident DCs that were CD11b+” value is approximately 87%. The “number of DCs residing in the material” value in the data set with host DCs (GM-CSF delivery) is listed as ~10^6 cells. Besides, the “total DC numbers in situ” value in the data set with host DCs is 4.2±0.9 million DCs and 2.67±0.64 million DCs. In the data set with host DCs (day 10), the “proportion of CD8+ cDCs in DC population at vaccine site” value is 5.5%. For the same molecule, the “proportion of pDCs in DC population at vaccine site” value in the data set on host DCs (day 10) is reported as 7%. Besides, the “number of activated DCs” value in the data set on host DCs (best GM-CSF-based vaccine) is given as ~240,000 DCs. In addition, the “recruited DCs that were activated” value with host DCs (best GM-CSF-based vaccine) is recorded as “approximately 26%”. Further, the “Trp2 specific CTLs in spleens, higher than control vaccines” value in data set [1] is reported as approximately 4 fold. The “concentration that inhibited DC migration toward CCL19” value in the data set on JAWSII DCs was more than 100 ng/mL. In addition, in the data set with TRP2-specific CTLs (CpG dose 0 μg), the “TRP2-specific CD8 T cells” value is 0.2 % splenocytes. In addition, the “day of secondary peak for GM-CSF in vivo” value came out at 5 days in data set [2] (3000 ng dose) and 7 days in data set [2] (7000 ng dose). The “GM-CSF concentration difference over no incorporated GM-CSF” value in data set [2] (12 hours post-implantation) is more than 30 fold. The “period elevated GM-CSF levels were maintained” value in data set [2] (mouse, in vivo) is reported as “approximately 10 days”. The “GM-CSF concentration in surrounding tissue” value in data set [2] (12 hours post-implantation, 1-3 mm from implant site) is 100 µg/mL; in data set [2] (12 hours post-implantation, 3-5 mm from implant site), 30 µg/mL.
